# Test results from patent US20080096870A1, “Methods and Materials for Treating Mental Illness” (priority 2004, published 2008).
# Key:
# NMDA receptor [1] = details: see ref. 12 and 13; cited from earlier work
# glutamate release = test: Evoked paired EPSCs (2nd/1st amplitude ratio) in cerebrocortical cultured neuron; format: cell-based, rat; details: 100 μM, Mg2+ 1 mM, Vh −60 mV
# Procedure: (§1) Neuronal Cultures. Cerebral cortices were dissected from newborn rats and treated with 0.25% trypsin to dissociate the cells. Dissociated cells were resuspended in Dulbecco's Modified Eagle's Medium (DMEM) containing 10% plasma derived horse serum (PDHS) and were plated in poly-L-lysine-coated, 35 mm Nunc plastic tissue culture dishes (3.0×10^6 cells/dish/2ml media). Cultures were maintained in an atmosphere of 5% CO2/95% air.
# (§2) Electrophysiological recordings: Voltage- and current-clamp recordings of membrane ionic currents and potentials were conducted by using Axopatch 200B and Axoclamp 1B amplifiers (Axon Instruments, Foster City, Calif.). The perforated nystatin- and gramicidin-based patch-clamp recording techniques were used to reduce nonspecific rundown of intracellular processes. Neurons were used for electrophysiological recordings between 12 and 27 days in vitro. […] Patch microelectrodes were pulled from 1.5 mm borosilicate glass tubing using a two-stage vertical pipette puller (Narishige, East Meadow, N.Y.). […] For rapid application of agonist-containing solutions to neurons, the SF-77B system (Warner Instrument Corp., Hamden, Conn.) was used.
# FIG. 4. […] A: Effect of 3,5-DBr-L-Phe on the evoked EPSCs in rat cerebrocortical cultured neuron. Examples of average EPSCs (20 traces average) in control conditions (open circle), in 3,5-DBr-L-Phe (filled circle). Synaptic responses were evoked by applying two sub-threshold electric stimuli (0.4-1 ms, 50-90 V, 250 ms apart) to an extracellular electrode (a patch electrode filled with the extracellular solution) positioned in the vicinity of the presynaptic neuron. Sweeps were recorded at 10 s intervals. After 20 sweeps, 100 μM 3,5-DBr-L-Phe was added. Neuron was held in whole-cell mode at Vh=−60 mV in Mg^2+ (1 mM) containing extracellular solution. […] The amplitude of the 1st and 2nd EPSCs were measured against the baseline; each point represents an average of five subsequent sweeps. Data expressed as mean±S.E.M. for 7 cells. *, P<0.01 compared to control.
# NMDA receptor [2] = test: NMDA receptor-mediated currents, patch-clamp recording in cultured cerebrocortical neurons; format: cell-based, rat; details: for effect on NMDA receptor-mediated current: rat cerebrocortical neurons, TTX-containing, Mg2+-free extracellular solution, holding potential −60 mV, concentration-dependent
# AMPA-kainate receptors = test: AMPA-activated currents (IAMPA) in cerebrocortical cultured neurons; format: cell-based, rat; details: for effect on activity of postsynaptic AMPA-kainate receptors (AMPA/kainate receptor function): rat cerebrocortical cultured neurons
# Procedure: as §1, §2
# The miniature EPSCs were recorded in TTX-containing (0.3-1 μM), Mg^2+-free (in case of NMDA receptor recording) extracellular solution at Vh=−60 mV. In order to isolate the NMDA component of GluR-mediated EPSCs, the non-NMDAR (AMPA/kainate) antagonist NBQX (10-20 μM) was added to extracellular solutions. To isolate the non-NMDAR-mediated EPSCs, the experiments were performed in the presence of NMDAR channel blocker, MK-801 (5-10 μM), or in the presence of the NMDAR antagonist, AP-5 (20 μM). Strychnine (1 μM) and picrotoxin (20 μM) were added to the extracellular solution to block glycine and GABA receptors, respectively. […] The basic extracellular solution contained (in mM): NaCl 140, KCl 4, CaCl2 2, MgCl2 1,4-(2-hydroxyethyl)-1-piperazineethanesulfonic acid (HEPES) 10, and glucose 11. The pH of the extracellular solution was adjusted to 7.4 using NaOH. The main solution for filling the patch electrodes contained (in mM): Cs gluconate 135, NaCl 5, KCl 10, MgCl2 1, CaCl2 1, EGTA 11, HEPES 10, Na2ATP 2, Na2GTP […]. The pH of the intracellular solution was adjusted to 7.4 using CsOH. […]
# C and D: 3,5-DBr-L-Phe depresses AMPA-activated currents (IAMPA) in rat cerebrocortical cultured neurons. Examples of AMPA-activated currents recorded from the same rat cortical neuron before application of 3,5-DBr-L-Phe, during exposure to different concentrations of BrPhe (noted in figure) and after washout of 3,5-DBr-L-Phe (C). […] Data expressed as mean±S.E.M. for 3-5 cells. *, P<0.01 compared to control.
# AMPA/kainate receptor = test: AMPA/kainate receptor-mediated mEPSCs, patch-clamp recording in cerebrocortical cultured neurons; format: cell-based, rat; details: TTX-containing solution, −60 mV, MK-801 10 μM; concentration-dependent
# Procedure: as §1
# Electrophysiological recordings: Voltage- and current-clamp recordings of membrane ionic currents and potentials were conducted by using Axopatch 200B and Axoclamp 1B amplifiers (Axon Instruments, Foster City, Calif.). […]
# (§3) The miniature EPSCs were recorded in TTX-containing (0.3-1 μM), Mg^2+-free (in case of NMDA receptor recording) extracellular solution at Vh=−60 mV. […]
# The digitized data was analyzed off-line using the Mini-Analysis Program (Synaptosoft, Leonia, N.J.) or the pCLAMP9 (Axon Instruments) (Axon Instruments, Union City, Calif.). […]
# FIG. 3. […] A: Representative traces of AMPA-kainate mEPSCs recorded from a cortical neuron under the following conditions: control; in the presence of 3,5-DBr-L-Phe (100 μM); after washout of 3,5-DBr-L-Phe. AMPA/kainate receptor-mediated currents were recorded in TTX-containing (0.3 μM) extracellular solution at holding membrane potential of −60 mV. […] Data is expressed as mean±SEM of 6-7 cells. […]
# GABA receptor = test: GABA receptor-mediated mIPSCs in cerebrocortical cultured neurons; format: cell-based, rat; details: 100 μM; TTX-containing solution, −60 mV
# Procedure: as §1
# Electrophysiological recordings: Voltage- and current-clamp recordings of membrane ionic currents and potentials were conducted by using Axopatch 200B and Axoclamp 1B amplifiers (Axon Instruments, Foster City, Calif.). The perforated nystatin- and gramicidin-based patch-clamp recording techniques were used to reduce nonspecific rundown of intracellular processes. Neurons were used for electrophysiological recordings between 12 and 27 days in vitro. […]
# as §3
# FIG. 5. […] A: Representative GABA receptor-mediated mIPSCs recorded from the same neuron before (control), during (100 μM), and after (wash) application of 3,5-DBr-L-Phe. GABA receptor-mediated mIPSCs were recorded in TTX-containing (0.3 μM) extracellular solution at holding membrane potential of −60 mV. […] Summary data is expressed as mean±SEM of 5 cells.
# [3] = system: rat cerebrocortical cultured neurons; test: Elicited action potentials, current-clamp in cerebrocortical cultured neurons; format: cell-based; details: 100 μM; inward current pulses 2 ms, 2 nA; 5 of 5 neurons
# Procedure: as §1
# Electrophysiological recordings: Voltage- and current-clamp recordings of membrane ionic currents and potentials were conducted by using Axopatch 200B and Axoclamp 1B amplifiers (Axon Instruments, Foster City, Calif.). The perforated nystatin- and gramicidin-based patch-clamp recording techniques were used to reduce nonspecific rundown of intracellular processes. Neurons were used for electrophysiological recordings between 12 and 27 days in vitro. […] Patch microelectrodes were pulled from 1.5 mm borosilicate glass tubing using a two-stage vertical pipette puller (Narishige, East Meadow, N.Y.). […]
# C: Examples of action potentials elicited by depolarizing the membrane with inward current pulses of 2 ms duration and 2 nA amplitude in control (before application of 3,5-DBr-L-Phe), in the presence of 3,5-DBr-L-Phe (100 μM) and after wash-out of the drug. Similar responses were recorded from 5 of 5 neurons.
smiles,measurement,setting,value
"N[C@@H](Cc1ccccc1)C(=O)O [L-Phe, L-Phenylalanine]",effect on NMDA receptor activity,NMDA receptor [1],"opposite, depressant, effect"
"N[C@@H](Cc1cccc(Br)c1)C(=O)O [3-bromo-L-Phe, 3-bromo-L-phenylalanine]",effect on glutamate release,glutamate release,significantly depresses
same,effect on NMDA receptor-mediated current,NMDA receptor [2],augment
same,effect on activity of postsynaptic AMPA-kainate receptors (AMPA/kainate receptor function),AMPA-kainate receptors,significantly depresses
"NC(CCCP(=O)(O)O)C(=O)O (stereo not drawn) [AP-5, reference compound]","effect of antagonist on 3,5-DBr-L-Phe-activated current","NMDA receptor [2]; AP-5 20 μM, 3,5-DBr-L-Phe 100 μM","depression of 3,5-DBr-L-Phe-activated current"
"N[C@@H](Cc1cc(Br)cc(Br)c1)C(=O)O [3,5-DBr-L-Phe, 3,5-dibromo-L-phenylalanine]",effect on AMPA/kainate receptor-mediated mEPSCs (frequency and amplitude),AMPA/kainate receptor,depresses
same,effect on glutamate release,glutamate release,causes depression
same,effect on glutamate release,"glutamate release; listed as 3,5-dibromo-L-Phe",significantly depresses
same,"sensitivity of 3,5-DBr-L-Phe-activated current to NMDA receptor specific antagonists","NMDA receptor [2]; 3,5-DBr-L-Phe 100 μM, AP-5 20 μM, 6 neurons",is blocked by NMDA receptor specific antagonists
same,dependence of activating effect on NMDA receptor-mediated current on NMDA concentration,"NMDA receptor [2]; 3,5-DBr-L-Phe 100 μM, NMDA 3-1000 μM, glycine 0.1 μM and 10 μM",depends on concentration of NMDA in extracellular solution
same,dependence of activating effect on NMDA receptor-mediated current on glycine concentration,"NMDA receptor [2]; 3,5-DBr-L-Phe 100 μM, different concentrations of glycine",does not depend on concentration of glycine
same,effect on NMDA receptor-mediated current,NMDA receptor [2],activates
same,effect on NMDA receptor-mediated current,"NMDA receptor [2]; listed as 3,5-dibromo-L-Phe",augment
same,effect on AMPA-activated currents (IAMPA),"AMPA-kainate receptors; AMPA 3 μM, exposure started 45 s before AMPA, different concentrations",depresses
same,effect on activity of postsynaptic AMPA-kainate receptors (AMPA/kainate receptor function),AMPA-kainate receptors,causes depression
same,effect on activity of postsynaptic AMPA-kainate receptors (AMPA/kainate receptor function),"AMPA-kainate receptors; listed as 3,5-dibromo-L-Phe",significantly depresses
same,effect on GABA receptor-mediated mIPSCs (amplitude and frequency),GABA receptor,does not significantly affect
same,effect on elicited action potentials,[3],does not significantly affect
